The record followed here is article PMC4026327 (Nature Communications, 2014).

What all share (settings): read-out: Melibiose displacement of D ^ 2 G (IC 50); 10 μM D2G, 20 mM NaCl, 100 mM KPi pH 7.5
For assay [1], the target named is MelBSt (WT) (Salmonella enterica, UniProt P30878, L5M/R295C).
In assay [2] the target is MelBSt (WT) (Salmonella enterica, UniProt P30878, L5M/R363C).
Assay [3] concerns the target MelBSt (WT) (Salmonella enterica, UniProt P30878, L5M/R141C).
Assay [4] concerns the target MelBSt (WT) (Salmonella enterica, UniProt P30878, L5M).

The structures appear in SMILES notation.

In the case of `OC[C@H]1O[C@H](OC[C@H]2OC(O)[C@H](O)[C@@H](O)[C@@H]2O)[C@H](O)[C@@H](O)[C@H]1O` (stereo partly shown) [melibiose], the IC50 in assay [1] amounted to 4.04 ± 0.42 mM; in assay [2], 2.83 ± 0.57 mM; in assay [3] it was 5.93 ± 1.61 mM; in assay [4] it was 2.65 ± 0.8 mM.
